Assay results reported in patent publication US6936723B2, “Synthetic salicylihalamides, apicularens and derivatives thereof” (Board of Regents, The University of Texas System, priority 2000, dated 2005).
Read-outs that look alike come from different tables or passages of the source.

Key:
H2009 = assay: Growth inhibition of tumor cell lines compared to TAXOL: H2009; assay type: cell-based; settings: Homo sapiens, NCI-H2009
Method: (§1) In addition, the ability of compounds 323a/c and 343 to inhibit growth of a number of tumor cell lines was tested and compared to TAXOL's ability to inhibit growth of these tumor cell lines.

NCI 60-cell line panel = assay: NCI 60-cell line human tumor screen (sulforhodamine B); assay type: cell-based; settings: 48 hours incubation, 10^−6 to 10^−10 molar
Source text: The NCI 60-cell line human tumor screen is a measure of the effectiveness of a compound for inhibiting or killing various human cancers. It is a set of 60 different cancer cell lines against which chemical compounds can be tested against to determine if the compound has anti-cancer activity. Each compound has an individual “fingerprint” based on effectiveness in killing each of the 60 cancer cell lines.
The anti-cancer activity of the synthesized (+)- and (−)-salicylihalamide-A compounds of the present invention (compounds 78 in FIG. 10 and 301a/301c in FIG. 14.) was indistinguishable. […] Salicylihalamide derivatives, showing increased stability over natural salicylihalamide, were tested in the NCI 60 cell-line screen. This screen is an art recognized model. Prior to assay, synthesized compounds were stored in dimethylsulfoxide at −70° C. Five different test concentrations of each compound were prepared by diluting the stock solution into complete medium. Sample concentrations were 2× the final concentration and range from 10^−6 and 10^−10 molar. An aliquot of each concentration of each compound was added to separate microtiter wells containing the respective cell lines in culture medium. The plates were incubated for 48 hours at 37° C. with 5% CO2 and 100% humidity. Adherent cells were fixed by addition of cold 50% trichloracetic acid and incubation at 4° C. for 60 minutes. Suspended cells were fixed to the bottom of the well by addition of 80% trichloracetic acid. The supernatant was removed from each well and then each well was washed with deionized water and allowed to dry. Sulforhodamine B solution was added to each well and allowed to incubate for 10 minutes at room temperature. Unbound sulforhodamine B was removed by washing with 1% acetic acid. The wells were allowed to dry. Bound sulforhodamine B was solubilized using 10 mM Tris base and the optical density at 515 nanometers was determined.

H2058 = assay: Growth inhibition of tumor cell lines compared to TAXOL: H2058; assay type: cell-based
Method: as §1

[1] = biological target: T1, purified reconstituted V-ATPase from bovine brain (Bos taurus, UniProt P23956+P61420+Q29466+Q2TA24); assay: Inhibition of purified reconstituted V-ATPase (proton pumping); assay type: biochemical
T1 construct: from tissue; host or cells: bovine brain
Source text: Therefore, the present invention provides a method for inhibiting the proton-pumping activity of V-ATPase by contacting V-ATPase, either in vitro or in vivo with the compounds of the present invention. […] See Boyd, M. R. et al., J Pharmacol. Exp. Ther. 297, 114-120 (2001); see also, PCT publication WO 00/51589 of Boyd et al. V-ATPase is composed of an ATPase domain and a proton translocating membraneous channel. […] See Crider, Xie and Stone, J. Biol. Chem. 269:17379-17381 (1994) for the experimental procedure for binding. […] See Example 7 and Table 5 below. See also Bill. Crider, Xie and Stone, J Biol. Chem. 269:17379-17381 (1994).
Others in the art typically use crude membrane preparations to assay V-ATPase activity.

H358 = assay: Growth inhibition of tumor cell lines compared to TAXOL: H358; assay type: cell-based; settings: Homo sapiens, NCI-H358
Method: as §1

[2] = test system: human melanoma cell line SK-MEL-5; assay: Growth inhibition of the SK-MEL-5 human melanoma cell line (MTT assay); assay type: cell-based; settings: for GI50: Homo sapiens; for growth inhibitory activity in the cell-based assay: SK-MEL-5 cell-based assay
Method: A cell-based assay looking for growth inhibition of the SK-MEL 5 human melanoma cell line was performed.

H1264 = assay: Growth inhibition of tumor cell lines compared to TAXOL: H1264; assay type: cell-based
Method: as §1

H175 = assay: Growth inhibition of tumor cell lines compared to TAXOL: H175; assay type: cell-based
Method: as §1

H1299 = assay: Growth inhibition of tumor cell lines compared to TAXOL: H1299; assay type: cell-based; settings: Homo sapiens, NCI-H1299
Method: as §1

[3] = biological target: trans-membraneous proton channel domain of V-ATPase (Bos taurus, UniProt P23956+P61420+Q29466+Q2TA24); assay: Incubation with V-ATPase domains independently: proton channel domain; assay type: biochemical
Chain of trans-membraneous proton channel domain of V-ATPase (P61420 whole entry, other chains not shown, the tested form may be a part): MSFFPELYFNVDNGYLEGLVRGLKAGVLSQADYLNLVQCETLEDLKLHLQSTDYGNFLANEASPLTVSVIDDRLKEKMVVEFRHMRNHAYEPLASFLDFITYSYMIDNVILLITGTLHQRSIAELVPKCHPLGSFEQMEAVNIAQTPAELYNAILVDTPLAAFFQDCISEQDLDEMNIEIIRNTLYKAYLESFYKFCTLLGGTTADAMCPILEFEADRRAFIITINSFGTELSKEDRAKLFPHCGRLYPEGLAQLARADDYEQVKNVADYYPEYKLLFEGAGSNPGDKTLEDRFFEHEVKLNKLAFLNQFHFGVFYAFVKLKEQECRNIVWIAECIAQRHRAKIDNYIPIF
Chain of trans-membraneous proton channel domain of V-ATPase (P23956 whole entry, other chains not shown, the tested form may be a part): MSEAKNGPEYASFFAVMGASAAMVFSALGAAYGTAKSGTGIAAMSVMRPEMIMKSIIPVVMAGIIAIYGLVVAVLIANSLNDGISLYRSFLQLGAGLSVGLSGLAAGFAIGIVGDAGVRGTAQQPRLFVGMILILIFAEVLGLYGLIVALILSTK
Chain of trans-membraneous proton channel domain of V-ATPase (Q29466 whole entry, other chains not shown, the tested form may be a part): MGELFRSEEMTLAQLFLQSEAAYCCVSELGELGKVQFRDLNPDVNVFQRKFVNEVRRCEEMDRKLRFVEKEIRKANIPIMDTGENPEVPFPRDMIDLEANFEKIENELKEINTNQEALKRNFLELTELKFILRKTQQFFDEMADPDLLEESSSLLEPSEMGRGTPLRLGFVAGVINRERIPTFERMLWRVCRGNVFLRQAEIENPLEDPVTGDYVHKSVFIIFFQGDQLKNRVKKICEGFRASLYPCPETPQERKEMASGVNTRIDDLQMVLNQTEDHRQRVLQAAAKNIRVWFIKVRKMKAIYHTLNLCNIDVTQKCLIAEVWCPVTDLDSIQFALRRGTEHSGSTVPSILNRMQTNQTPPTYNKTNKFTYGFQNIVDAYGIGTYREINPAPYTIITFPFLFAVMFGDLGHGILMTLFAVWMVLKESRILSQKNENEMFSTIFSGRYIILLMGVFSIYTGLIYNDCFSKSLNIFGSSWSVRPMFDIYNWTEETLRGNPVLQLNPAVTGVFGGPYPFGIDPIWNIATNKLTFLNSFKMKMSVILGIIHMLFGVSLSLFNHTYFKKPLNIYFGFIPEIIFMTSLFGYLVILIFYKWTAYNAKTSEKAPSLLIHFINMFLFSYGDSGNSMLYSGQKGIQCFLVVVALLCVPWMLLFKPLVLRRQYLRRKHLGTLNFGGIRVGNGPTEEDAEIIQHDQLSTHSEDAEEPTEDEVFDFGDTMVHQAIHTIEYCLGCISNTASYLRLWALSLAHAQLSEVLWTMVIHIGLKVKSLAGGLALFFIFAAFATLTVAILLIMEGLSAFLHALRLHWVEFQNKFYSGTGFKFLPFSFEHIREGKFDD
Chain of trans-membraneous proton channel domain of V-ATPase (Q2TA24 whole entry, other chains not shown, the tested form may be a part): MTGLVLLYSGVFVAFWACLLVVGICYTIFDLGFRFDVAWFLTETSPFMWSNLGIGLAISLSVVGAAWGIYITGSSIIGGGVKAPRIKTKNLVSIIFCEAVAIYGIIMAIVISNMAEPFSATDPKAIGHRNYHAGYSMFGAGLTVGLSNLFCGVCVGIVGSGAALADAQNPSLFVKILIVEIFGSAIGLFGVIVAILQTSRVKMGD
Source text: Therefore, the present invention provides a method for inhibiting the proton-pumping activity of V-ATPase by contacting V-ATPase, either in vitro or in vivo with the compounds of the present invention. Inhibition of the proton-pumping activity of V-ATPase is useful, inter alia, for the treatment and prevention of cancer and osteoporosis. […] See Boyd, M. R. et al., J Pharmacol. Exp. Ther. 297, 114-120 (2001); see also, PCT publication WO 00/51589 of Boyd et al. V-ATPase is composed of an ATPase domain and a proton translocating membraneous channel. […] See Crider, Xie and Stone, J. Biol. Chem. 269:17379-17381 (1994) for the experimental procedure for binding. This was shown by incubating select compounds of the present invention with the domains independently and showing that 70% of the channel activity was inhibited at 1 nM of the compound while there was virtually no interference with ATPase activity at the same concentration. See Example 7 and Table 5 below. See also Bill. Crider, Xie and Stone, J Biol. Chem. 269:17379-17381 (1994).

SK-MEL-28 cells = assay: Anti-cancer activity against SK-MEL-28 cells; assay type: cell-based, human
Source text: The inventor has accomplished the first synthesis of both […] and (−)-salicylihalamide A. The synthesis utilizes a highly efficient, trans-selective ring-closing olefin metathesis for the assembly of the benzolactone skeleton and can be readily adapted to obtain a variety of analogs. […] This cell line is one of the cell lines in the NCI 60 cell line screen.
The absolute configuration of natural salicylihalamide A (1a) was originally misassigned in Boyd et al., 1997. The correct configuration is represented by structure 89. The ultimate proof for this assignment came from a crystallographic analysis of a p-bromobenzoate derivative of salicylihalamide 90, prepared from 73 in a manner similar to the synthesis of 74. […] (−)-salicylihalamide A does have chemotherapeutic activity. […] This cell line is one of the cell lines in the NCI 60 cell line screen.

[4] = 48 h, SK-MEL-5, growth determined 2 days after addition by MTT assay, triplicate assays at 4 concentrations, read-out: GI50
[5] = purified reconstituted V-ATPase from bovine brain, inhibition of proton pumping, read-out: IC50

Compound: CC/C=C\C=C/C(=O)N/C=C/C[C@H]1C[C@@H](O)[C@@H](C)C/C=C/Cc2cccc(O)c2C(=O)O1 [301a/301c]
- GI50 (H2009): 2 nM
- activity / differential cytotoxicity profile in the NCI 60-cell line screen (NCI 60-cell line panel; listed as 1:1 mixture of salicylihalamide A (1) and C22-E isomer 211): indistinguishable, within the limits of experimental error, from natural salicylihalamide A
- GI50 (H2058): 3.2 nM
- IC50 [1]: 0.34 nM
- GI50 (H358): 1.6 nM
- GI50 ([2]; SK-MEL-5, 48 h): 30 nM
- GI50 (H1264): 31.6 nM
- GI50 (H175): 0.2 nM
- GI50 (H1299): 3.2 nM

Compound: CCC=CC=CC(=O)NC=CCC1CC2CC(O)CC(Cc3cccc(O)c3C(=O)O1)O2 (centres unmarked) [Apicularen A]
- IC50 [1]: < 1 nM
- GI50 [2, 4]: 6 nM

Compound: CO/C1=C\C(C)=C\[C@@H](C)[C@@H](O)[C@@H](C)C/C(C)=C/C=C/[C@H](OC)[C@@H]([C@@H](C)[C@@H](O)[C@H](C)[C@@]2(O)C[C@@H](O)[C@H](C)[C@@H](C(C)C)O2)OC1=O [Bafilomycin A, reference compound]
- IC50 [1, 5]: 3.1 nM

Compound: CC/C=C\C=C/C(=O)N/C=C/C[C@H]1C[C@@H](O)[C@@H](C)C/C=C/Cc2cccc(O)c2C(=O)O1 [Compound 301a, salicylihalamide A]
- activity / differential cytotoxicity profile in the NCI 60-cell line screen (NCI 60-cell line panel): differential cytotoxicity profile undistinguishable from the natural product
- binding site on V-ATPase [3]: membrane spanning Vo proton channel
- mode of V-ATPase inhibition (reversibility) [1]: reversible inhibitor
- anti-cancer activity against SK-MEL-28 cells (SK-MEL-28 cells; at 10 nM): active

Compound: C=CCOC(=O)/C=C/CC1C[C@@H](O)[C@@H](C)C/C=C/Cc2cccc(O)c2C(=O)O1 (some centres unmarked) [Compound 335b]
- IC50 [1, 5]: 230 nM
- GI50 [2, 4]: > 20000 nM
- growth inhibitory activity in the cell-based assay [2]: completely inactive

Compound: CC/C=C\C=C/C(=O)N(/C=C/C[C@H]1C[C@@H](O)[C@@H](C)C/C=C/Cc2cccc(O)c2C(=O)O1)C(=O)N/C=C/C[C@H]1C[C@@H](O)[C@@H](C)C/C=C/Cc2cccc(O)c2C(=O)O1 [Compound 343]
- GI50 (H2009): 1.6 nM
- GI50 (H2058): 6.3 nM
- IC50 [1]: 0.37 nM
- GI50 (H358): 10 nM
- GI50 ([2]; SK-MEL-5, 48 h): 40 nM
- GI50 (H1264): 31.6 nM
- GI50 (H175): 0.2 nM
- GI50 (H1299): 5 nM

Compound: CCCCCCC(=O)N(/C=C/C[C@H]1C[C@@H](O)[C@@H](C)C/C=C/Cc2cccc(O)c2C(=O)O1)C(=O)N/C=C/C[C@H]1C[C@@H](O)[C@@H](C)C/C=C/Cc2cccc(O)c2C(=O)O1 [Compound 345]
- IC50 [1]: 3 nM
- GI50 [2, 4]: 600 nM

Compound: CCCCCCC(=O)N/C=C/C[C@H]1C[C@@H](O)[C@@H](C)C/C=C/Cc2cccc(O)c2C(=O)O1 [Compound 346]
- IC50 [1]: 0.8 nM
- GI50 [2, 4]: 380 nM

Compound: C[C@H]1C/C=C/Cc2cccc(O)c2C(=O)OC(C/C=C/NC(=O)C#Cc2ccccc2)C[C@H]1O (some centres unmarked) [Compound 349]
- IC50 [1]: 0.75 nM
- GI50 [2, 4]: 300 nM

Compound: CCCCC#CC(=O)N/C=C/CC1C[C@@H](O)[C@@H](C)C/C=C/Cc2cccc(O)c2C(=O)O1 (some centres unmarked) [Compound 350]
- IC50 [1]: 1 nM
- GI50 [2, 4]: 300 nM

Compound: CCCCCOC(=O)N/C=C/C[C@H]1C[C@@H](O)[C@@H](C)C/C=C/Cc2cccc(O)c2C(=O)O1 [Compound 351]
- IC50 [1]: 0.2 nM
- GI50 [2, 4]: 500 nM

Compound: CCCCCSC(=O)N/C=C/CC1C[C@@H](O)[C@@H](C)C/C=C/Cc2cccc(O)c2C(=O)O1 (some centres unmarked) [Compound 352]
- IC50 [1]: 1.8 nM
- GI50 [2, 4]: 450 nM

Compound: CC(C)=CCC/C(C)=C/CC/C(C)=C/COC(=O)N/C=C/CC1C[C@@H](O)[C@@H](C)C/C=C/Cc2cccc(O)c2C(=O)O1 (some centres unmarked) [Compound 353]
- IC50 [1]: > 1800 nM
- GI50 [2, 4]: > 20000 nM

Compound: CCCCCCCC(=O)OCC[C@H]1C[C@@H](O)[C@@H](C)C/C=C/Cc2cccc(O)c2C(=O)O1 [Compound 355]
- IC50 [1, 5]: > 1000 nM
- GI50 [2, 4]: > 20000 nM
- growth inhibitory activity in the cell-based assay [2]: completely inactive

Compound: CCCCCOC(=O)N/C=C/C[C@H]1C[C@@H](O)[C@@H](C)CCCCc2cccc(O)c2C(=O)O1 [Compound 361]
- IC50 [1]: 9.3 nM
- GI50 [2, 4]: 8000 nM
- growth inhibitory activity in the cell-based assay [2]: retained a significant, although attenuated, level of growth inhibitory activity

Compound: CCCCCOC(=O)NCCC[C@H]1C[C@@H](O)[C@@H](C)CCCCc2cccc(O)c2C(=O)O1 [Compound 362]
- IC50 [1]: 75.7 nM
- GI50 [2, 4]: > 20000 nM
- growth inhibitory activity in the cell-based assay [2]: completely abolished antiproliferative potential

Compound: CCCCCOC(=O)N/C=C/C[C@H]1C[C@@H](O)[C@@H](C)C/C=C/Cc2cccc(OC(=O)c3ccccc3)c2C(=O)O1 [Compound 366]
- IC50 [1, 5]: 300 nM
- GI50 [2, 4]: 1000 nM

Compound: CC(=O)O[C@H]1C(=O)[C@@]2(C)[C@H]([C@H](OC(=O)c3ccccc3)[C@]3(O)C[C@H](OC(=O)[C@H](O)[C@@H](NC(=O)c4ccccc4)c4ccccc4)C(C)=C1C3(C)C)[C@]1(OC(C)=O)CO[C@@H]1C[C@@H]2O [TAXOL, reference compound]
- GI50 (H2009; cell line H2009, read-out: GI50): 5 nM
- GI50 (H2058; cell line H2058, read-out: GI50): 5 nM
- GI50 (H358; cell line H358, read-out: GI50): 5 nM
- GI50 (H1264; cell line H1264, read-out: GI50): 5 nM
- GI50 (H175; cell line H175, read-out: GI50): 5 nM
- GI50 (H1299; cell line H1299, read-out: GI50): 5 nM

Compound: (+)-salicylihalamide A [Compound 87]
- activity / differential cytotoxicity profile in the NCI 60-cell line screen (NCI 60-cell line panel): completerly inactive
- activity / differential cytotoxicity profile in the NCI 60-cell line screen (NCI 60-cell line panel; listed as ent-301a): devoid of growth inhibitory activity
- IC50 [1, 5]: 270 nM
- anti-cancer activity against SK-MEL-28 cells (SK-MEL-28 cells; at 20 μM): inactive
